Reference: patent publication US9695155B2, “Herbicidal substituted pyrimidinyloxy benzene compounds” (E. I. DU PONT DE NEMOURS AND COMPANY, priority 2013, dated 2017)

What was measured:
pigweed = test: Test C preemergence; format: in vivo, Amaranthus retroflexus; details: for Pigweed plant response rating: preemergence; for Plant response rating, Pigweed: Preemergence, scale 0 to 100, 0 no effect, 100 complete control
In short: (§1)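 Rated visually on 0–100 (100 = complete control) after 13–15 days under glass. Treatments went onto freshly seeded loam/sand soil or onto emerged plants at the 1- to 4-leaf stage, using a surfactant-containing solvent formulation.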

yellow nutsedge = test: Test C preemergence; format: in vivo, Cyperus esculentus; details: for Nutsedge, Yellow plant response rating: preemergence; for Plant response rating, Nutsedge, Yellow: Preemergence, scale 0 to 100, 0 no effect, 100 complete control
In short: as §1

galium = test: Test A postemergence; format: in vivo, Galium aparine; details: 0 to 100 scale where 0 is no effect and 100 is complete control
In short: (§2)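 Visual injury scored 0–100 (100 = complete control) against untreated controls about 10 days after treatment in a greenhouse. Test chemicals, formulated with surfactant in non-phytotoxic solvent, were sprayed on soil preemergence or on 2-10 cm, one- to two-leaf plants postemergence.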

ragweed [1] = test: Test C preemergence; format: in vivo, Ambrosia elatior; details: for Ragweed plant response rating: preemergence; for Plant response rating, Ragweed: Preemergence, scale 0 to 100, 0 no effect, 100 complete control
In short: as §1

velvetleaf = test: Test C preemergence; format: in vivo, Abutilon theophrasti; details: for Velvetleaf plant response rating: preemergence; for Plant response rating, Velvetleaf: Preemergence, scale 0 to 100, 0 no effect, 100 complete control
In short: as §1

barnyardgrass = test: Test C preemergence; format: in vivo, Echinochloa crus-galli; details: for Barnyardgrass plant response rating: preemergence; for Plant response rating, Barnyardgrass: Preemergence, scale 0 to 100, 0 no effect, 100 complete control
In short: as §1

ragweed [2] = test: Test A postemergence; format: in vivo, Ambrosia elatior; details: 0 to 100 scale where 0 is no effect and 100 is complete control
In short: as §2

blackgrass [3] = test: Test C preemergence; format: in vivo, Alopecurus myosuroides; details: for Blackgrass plant response rating: preemergence; for Plant response rating, Blackgrass: Preemergence, scale 0 to 100, 0 no effect, 100 complete control
In short: as §1

lambsquarters = test: Test C preemergence; format: in vivo, Chenopodium album; details: for Lambsquarters plant response rating: preemergence; for Plant response rating, Lambsquarters: Preemergence, scale 0 to 100, 0 no effect, 100 complete control
In short: as §1

wheat, winter = test: Test C preemergence; format: in vivo, Triticum aestivum; details: for Wheat plant response rating: preemergence; for Plant response rating, Wheat: Preemergence, scale 0 to 100, 0 no effect, 100 complete control
In short: as §1

large (Lg) crabgrass = test: Test C preemergence; format: in vivo, Digitaria sanguinalis; details: for Crabgrass, Large plant response rating: preemergence; for Plant response rating, Crabgrass, Large: Preemergence, scale 0 to 100, 0 no effect, 100 complete control
In short: as §1

soybean = test: Test C preemergence; format: in vivo, Glycine max; details: for Soybean plant response rating: preemergence; for Plant response rating, Soybean: Preemergence, scale 0 to 100, 0 no effect, 100 complete control
In short: as §1

blackgrass [4] = test: Test A postemergence; format: in vivo, Alopecurus myosuroides; details: 0 to 100 scale where 0 is no effect and 100 is complete control
In short: as §2

ragweed [5] = test: Test A preemergence; format: in vivo, Ambrosia elatior; details: 0 to 100 scale where 0 is no effect and 100 is complete control
In short: as §2

giant foxtail = test: Test C preemergence; format: in vivo, Setaria faberii; details: for Foxtail, Giant plant response rating: preemergence; for Plant response rating, Foxtail, Giant: Preemergence, scale 0 to 100, 0 no effect, 100 complete control
In short: as §1

oilseed rape = test: Test C preemergence; format: in vivo, Brassica napus; details: for Oilseed Rape plant response rating: preemergence; for Plant response rating, Oilseed Rape: Preemergence, scale 0 to 100, 0 no effect, 100 complete control
In short: as §1

kochia = test: Test A postemergence; format: in vivo, Kochia scoparia; details: 0 to 100 scale where 0 is no effect and 100 is complete control
In short: as §2

waterhemp = test: Test C preemergence; format: in vivo, Amaranthus rudis; details: for Waterhemp plant response rating: preemergence; for Plant response rating, Waterhemp: Preemergence, scale 0 to 100, 0 no effect, 100 complete control
In short: as §1

[6] = 8 g ai/ha, scale 0 to 100 (0 no effect, 100 complete control)
[7] = 16 g ai/ha, scale 0 to 100 (0 no effect, 100 complete control)
[8] = 62 g ai/ha, scale 0 (no effect) to 100 (complete control)
[9] = 31 g ai/ha, scale 0 to 100 (0 no effect, 100 complete control)
[10] = 125 g ai/ha, scale 0 (no effect) to 100 (complete control)

N#Cc1cnn(-c2c(C#N)cccc2Oc2ncc(Br)cn2)c1 [Compound 135]
45: Plant response rating, Velvetleaf (velvetleaf; 31 g ai/ha) | Crabgrass, Large plant response rating (large (Lg) crabgrass; [6])
90: Plant response rating, Galium (galium; 500 g ai/ha) | Plant response rating, Blackgrass (blackgrass [4]; 500 g ai/ha) | Plant response rating, Ragweed (ragweed [5]; 125 g ai/ha) | Ragweed plant response rating (ragweed [5]; 500 g ai/ha)
98: Pigweed plant response rating (pigweed; [8])
30: Lambsquarters plant response rating (lambsquarters; [7]) | Blackgrass plant response rating (blackgrass [4]; 125 g ai/ha) | Oilseed Rape plant response rating (oilseed rape; [6])
5: Velvetleaf plant response rating (velvetleaf; [6]) | Plant response rating, Blackgrass (blackgrass [3]; 31 g ai/ha) | Foxtail, Giant plant response rating (giant foxtail; [7])
40: Ragweed plant response rating (ragweed [1]; [7]) | Velvetleaf plant response rating (velvetleaf; [7])
80: Plant response rating, Pigweed (pigweed; 31 g ai/ha)
15: Nutsedge, Yellow plant response rating (yellow nutsedge; [8]) | Plant response rating, Barnyardgrass (barnyardgrass; 31 g ai/ha)
100: Plant response rating, Ragweed (ragweed [2]; 500 g ai/ha) | Crabgrass, Large plant response rating (large (Lg) crabgrass; [8]) | Plant response rating, Crabgrass, Large (large (Lg) crabgrass; 31 g ai/ha) | Waterhemp plant response rating (waterhemp; [8]) | Plant response rating, Waterhemp (waterhemp; 31 g ai/ha)
65: Ragweed plant response rating (ragweed [1]; [8]) | Plant response rating, Soybean (soybean; 31 g ai/ha)
20: Blackgrass plant response rating (blackgrass [3]; [8]) | Soybean plant response rating (soybean; [7]) | Kochia plant response rating (kochia; 125 g ai/ha)
50: Pigweed plant response rating (pigweed; [6])
70: Foxtail, Giant plant response rating (giant foxtail; [8]) | Plant response rating, Foxtail, Giant (giant foxtail; 31 g ai/ha) | Plant response rating, Kochia (kochia; 500 g ai/ha)
55: Plant response rating, Ragweed (ragweed [1]; 31 g ai/ha) | Oilseed Rape plant response rating (oilseed rape; [7]) | Waterhemp plant response rating (waterhemp; [6])
0: Nutsedge, Yellow plant response rating (yellow nutsedge; [6]) | Nutsedge, Yellow plant response rating (yellow nutsedge; [7]) | Plant response rating, Nutsedge, Yellow (yellow nutsedge; 31 g ai/ha) | Ragweed plant response rating (ragweed [1]; [6]) | Barnyardgrass plant response rating (barnyardgrass; [6]) | Barnyardgrass plant response rating (barnyardgrass; [7]) | Blackgrass plant response rating (blackgrass [3]; [6]) | Blackgrass plant response rating (blackgrass [3]; [7]) | Wheat plant response rating (wheat, winter; [6]) | Wheat plant response rating (wheat, winter; [7]) | Wheat plant response rating (wheat, winter; [8]) | Plant response rating, Wheat (wheat, winter; 31 g ai/ha) | Foxtail, Giant plant response rating (giant foxtail; [6])
95: Oilseed Rape plant response rating (oilseed rape; [8]) | Plant response rating, Oilseed Rape (oilseed rape; 31 g ai/ha)
10: Soybean plant response rating (soybean; [6])
60: Galium plant response rating (galium; 125 g ai/ha) | Barnyardgrass plant response rating (barnyardgrass; [8]) | Ragweed plant response rating (ragweed [2]; 125 g ai/ha) | Crabgrass, Large plant response rating (large (Lg) crabgrass; [7])
85: Pigweed plant response rating (pigweed; [7]) | Velvetleaf plant response rating (velvetleaf; [8]) | Lambsquarters plant response rating (lambsquarters; [8]) | Plant response rating, Lambsquarters (lambsquarters; 31 g ai/ha) | Soybean plant response rating (soybean; [8])
75: Waterhemp plant response rating (waterhemp; [7])

NC(=S)c1cccc(Oc2ncc(Cl)cn2)c1-n1cc(Cl)cn1 [Compound 292]
15: Velvetleaf plant response rating (velvetleaf; [7]) | Barnyardgrass plant response rating (barnyardgrass; [9]) | Wheat plant response rating (wheat, winter; [10])
100: Pigweed plant response rating (pigweed; [7]) | Pigweed plant response rating (pigweed; [9]) | Pigweed plant response rating (pigweed; [10]) | Plant response rating, Pigweed (pigweed; 62 g ai/ha) | Velvetleaf plant response rating (velvetleaf; [10]) | Barnyardgrass plant response rating (barnyardgrass; [10]) | Lambsquarters plant response rating (lambsquarters; [10]) | Crabgrass, Large plant response rating (large (Lg) crabgrass; [7]) | Crabgrass, Large plant response rating (large (Lg) crabgrass; [9]) | Crabgrass, Large plant response rating (large (Lg) crabgrass; [10]) | Plant response rating, Crabgrass, Large (large (Lg) crabgrass; 62 g ai/ha) | Foxtail, Giant plant response rating (giant foxtail; [9]) | Foxtail, Giant plant response rating (giant foxtail; [10]) | Plant response rating, Foxtail, Giant (giant foxtail; 62 g ai/ha) | Waterhemp plant response rating (waterhemp; [7]) | Waterhemp plant response rating (waterhemp; [9]) | Waterhemp plant response rating (waterhemp; [10]) | Plant response rating, Waterhemp (waterhemp; 62 g ai/ha)
40: Soybean plant response rating (soybean; [9])
85: Plant response rating, Barnyardgrass (barnyardgrass; 62 g ai/ha) | Plant response rating, Soybean (soybean; 62 g ai/ha)
5: Soybean plant response rating (soybean; [7])
0: Nutsedge, Yellow plant response rating (yellow nutsedge; [7]) | Nutsedge, Yellow plant response rating (yellow nutsedge; [9]) | Plant response rating, Nutsedge, Yellow (yellow nutsedge; 62 g ai/ha) | Barnyardgrass plant response rating (barnyardgrass; [7]) | Blackgrass plant response rating (blackgrass [3]; [7]) | Wheat plant response rating (wheat, winter; [7]) | Wheat plant response rating (wheat, winter; [9])
25: Ragweed plant response rating (ragweed [1]; [7])
10: Plant response rating, Wheat (wheat, winter; 62 g ai/ha)
35: Nutsedge, Yellow plant response rating (yellow nutsedge; [10]) | Ragweed plant response rating (ragweed [1]; [9]) | Plant response rating, Ragweed (ragweed [1]; 62 g ai/ha) | Velvetleaf plant response rating (velvetleaf; [9]) | Lambsquarters plant response rating (lambsquarters; [7])
90: Blackgrass plant response rating (blackgrass [3]; [10]) | Plant response rating, Blackgrass (blackgrass [3]; 62 g ai/ha) | Soybean plant response rating (soybean; [10])
70: Ragweed plant response rating (ragweed [1]; [10]) | Blackgrass plant response rating (blackgrass [3]; [9]) | Oilseed Rape plant response rating (oilseed rape; [7])
80: Lambsquarters plant response rating (lambsquarters; [9]) | Oilseed Rape plant response rating (oilseed rape; [9])
98: Plant response rating, Velvetleaf (velvetleaf; 62 g ai/ha) | Plant response rating, Lambsquarters (lambsquarters; 62 g ai/ha) | Oilseed Rape plant response rating (oilseed rape; [10]) | Plant response rating, Oilseed Rape (oilseed rape; 62 g ai/ha)
45: Foxtail, Giant plant response rating (giant foxtail; [7])
